Data reported in patent US20080280837A1, “Biologically Active Compounds with Anti-Angiogenic Properties” (priority 2004, published 2008).

Biological target: T1, Human SST5 somatostatin receptor (SSTR5) (Homo sapiens, UniProt P35346)
T1 construct: expressed in transfected cells; host or cells: HEK-293 EBNA
Assay: Filter plate assay for SST5 receptor, displacement of [125I]SST-14
Type: binding
Experimental: Receptor membrane preparations containing the desired cloned receptor (for example cloned human somatostatin receptor subtype 5, SSTR5) and radio-labeled ligand (for example 3-[^125I]iodotyrosyl^11 Somatostatin-14)) were diluted at the concentration required for testing and according to the specific parameters associated with the selected receptor-ligand combination, including receptor Bmax, ligand Kd and any other parameters necessary to optimize the experimental conditions. When tested for competition activity to the reference ligand, “compound 1” was mixed with membrane suspension and the radiolabeled reference ligand (with or without an excess of cold ligand to the receptor for determination of non-specific binding) and incubated at the temperature required by internal standard operating procedures. Following incubation, the binding reaction was stopped by the addition of ice-cold washing buffer and filtered on appropriate filters, which are then counted. Data analysis and curve-fitting was performed with XLfit (IDBS).
10 mM solutions of test compounds in 100% DMSO were prepared. ˜160 μl was used for each dilution (20 μl/well in triplicate).
A 1.25 mM assay stock was prepared by making a 1:8 dilution of the 10 mM solution. (To 30 μL of the 10 mM solution was added 210 μL milli-Q H2O. A 1:5 dilution series in milli-Q H2O was then prepared.
Assays were performed in triplicate at each concentration within the 1:5 dilution series: 250 μM, 50 μM, 10 μM, […], 0.4 μM, 0.08 μM, 0.016 μM, 0.0032 μM, etc. (for SST4 assay) and 125 μM, 10 μM, 2 μM, 1 μM, 0.5 μM, etc (for SST5 assay).
Human SST5 somatostatin receptor was transfected into HEK-293 EBNA cells. Membranes were suspended in assay buffer (50 mM Tris-HCl, 1 mM EGTA, 5 mM MgCl2, 10% sucrose, pH 7.5).
After thawing the frozen receptor preparation rapidly, receptors were diluted with binding buffer, homogenized, and kept on ice. • 1. Use Multiscreen glass fiber filter plates (Millipore, Cat No MAFCNOB10) precoated with o.5% PEI for ˜2 hr at 4° C. Before use add 200 μl/well assay buffer and filter using Multiscreen Separation System. • 2. Incubate 5.5 μg of membranes (40 μl of a 1:40 dilution), buffer and [^125I]SST-14 (4 nM, ˜80 000 cpm, 2000 Ci/mmol) in a total volume of 200 μl for 60 min at 25° C. […] Prepare serial dilutions (1:5) of compounds, as described above and instead of adding SST-14 in well, add 20 μl of compounds (Table 1). • 3. Filter using Multiscreen Separation System with 5×0.2 ml ice-cold Assay buffer. • 4. Remove the plastic underdrain and dry plate in oven for 1 hr at 40° C. • 5. Seal tape to the bottom of the plate. • 6. Add 50 μl/well scintillant (Supermix, Wallac, Cat No 1200-439). • 7. Seal and count in the BJET, program 2.
In primary screening experiments compounds were tested in duplicate for a particular concentration.

T1 sequence (P35346 whole entry): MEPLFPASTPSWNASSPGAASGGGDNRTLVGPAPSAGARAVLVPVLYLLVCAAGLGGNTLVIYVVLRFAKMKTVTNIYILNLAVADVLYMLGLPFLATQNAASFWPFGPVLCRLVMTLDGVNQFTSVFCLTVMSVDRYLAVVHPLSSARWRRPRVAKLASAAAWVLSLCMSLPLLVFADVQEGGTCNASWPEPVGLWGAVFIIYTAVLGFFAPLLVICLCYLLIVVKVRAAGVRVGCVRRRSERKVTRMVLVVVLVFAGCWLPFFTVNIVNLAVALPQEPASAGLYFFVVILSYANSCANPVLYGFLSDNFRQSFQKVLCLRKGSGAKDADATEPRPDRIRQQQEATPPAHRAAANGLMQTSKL

## COC[C@H]1OC(OCc2ccc(Cl)cc2)[C@H](NC(=O)CCNC(=N)N)[C@@H](OCc2ccc(Cl)cc2)[C@@H]1O (stereo partly drawn) [Compound 123]
  SSTR5 Inhib 0.5 uM % (inhibition of binding of SST-14 to SSTR5): 40%
  SSTR5 Inhib 10 uM % (inhibition of binding of SST-14 to SSTR5): 81%

## COC[C@H]1OC(OCc2ccc(-c3ccccc3)cc2)[C@H](NC(=O)CCCNC(=N)N)[C@@H](OCc2ccc(Cl)cc2)[C@@H]1O (stereo partly drawn) [Compound 120]
  SSTR5 Inhib 0.5 uM % (inhibition of binding of SST-14 to SSTR5): 46%
  SSTR5 Inhib 10 uM % (inhibition of binding of SST-14 to SSTR5): 81%

## CSC1O[C@H](COCc2ccccc2)[C@@H](O)[C@@H](OCc2ccc(Cl)cc2)[C@H]1NC(=O)CNC(=N)N (stereo partly drawn) [Compound 45]
  SSTR5 Inhib 0.5 uM % (inhibition of binding of SST-14 to SSTR5): 71%
  SSTR5 Inhib 10 uM % (inhibition of binding of SST-14 to SSTR5): 93%

## COC[C@H]1OC(OCc2ccc(Cl)cc2)[C@H](NC(=O)CCCNC(=N)N)[C@@H](OCc2ccc(-c3ccccc3)cc2)[C@@H]1O (stereo partly drawn) [Compound 96]
  SSTR5 Inhib 0.5 uM % (inhibition of binding of SST-14 to SSTR5): 43%
  SSTR5 Inhib 10 uM % (inhibition of binding of SST-14 to SSTR5): 85%

## COC[C@H]1OC(OCc2ccc(Cl)cc2)[C@H](NC(=O)CNC(=N)N)[C@H](OCc2ccc3ccccc3c2)[C@@H]1O (stereo partly drawn) [Compound 159]
  SSTR5 Inhib 0.5 uM % (inhibition of binding of SST-14 to SSTR5): 31%
  SSTR5 Inhib 10 uM % (inhibition of binding of SST-14 to SSTR5): 75%

## COC[C@H]1OC(OCCc2ccccc2)[C@H](NC(=O)CCCN)[C@@H](OCc2ccc(Cl)cc2)[C@@H]1O (stereo partly drawn) [Compound 145]
  SSTR5 Inhib 0.5 uM % (inhibition of binding of SST-14 to SSTR5): 45%
  SSTR5 Inhib 10 uM % (inhibition of binding of SST-14 to SSTR5): 78%

## COC[C@H]1OC(OCc2ccc3ccccc3c2)[C@H](NC(=O)CCCN)[C@@H](OCc2ccc(-c3ccccc3)cc2)[C@@H]1O (stereo partly drawn) [Compound 25]
  SSTR5 Inhib 0.5 uM % (inhibition of binding of SST-14 to SSTR5): 77%
  SSTR5 Inhib 10 uM % (inhibition of binding of SST-14 to SSTR5): 96%

## COC[C@H]1OC(OCc2ccccc2)[C@H](NC(=O)CCNC(=N)N)[C@H](OCc2ccc(-c3ccccc3)cc2)[C@@H]1O (stereo partly drawn) [Compound 87]
  SSTR5 Inhib 0.5 uM % (inhibition of binding of SST-14 to SSTR5): 43%
  SSTR5 Inhib 10 uM % (inhibition of binding of SST-14 to SSTR5): 86%

## COC[C@H]1OC(OCc2ccc(-c3ccccc3)cc2)[C@H](NC(=O)CCCNC(=N)N)[C@@H](OCc2ccc(-c3ccccc3)cc2)[C@@H]1O (stereo partly drawn) [Compound 77]
  SSTR5 Inhib 0.5 uM % (inhibition of binding of SST-14 to SSTR5): 50%
  SSTR5 Inhib 10 uM % (inhibition of binding of SST-14 to SSTR5): 88%

## COC1C(O)C(COCc2ccc(Cl)cc2)OC(OCCc2ccccc2)C1NC(=O)CCCN (stereo not drawn) [Compound 141]
  SSTR5 Inhib 0.5 uM % (inhibition of binding of SST-14 to SSTR5): 36%
  SSTR5 Inhib 10 uM % (inhibition of binding of SST-14 to SSTR5): 78%

## COC[C@H]1OC(OCc2ccc(Cl)cc2)[C@H](NC(=O)CCCN)[C@@H](OCc2ccc3ccccc3c2)[C@@H]1O (stereo partly drawn) [Compound 19]
  SSTR5 Inhib 0.5 uM % (inhibition of binding of SST-14 to SSTR5): 88%
  SSTR5 Inhib 10 uM % (inhibition of binding of SST-14 to SSTR5): 98%

## COC[C@H]1OC(OCc2ccc(Cl)cc2)[C@H](NC(=O)CCCN)[C@@H](OCc2ccc3ccccc3c2)[C@@H]1O (stereo partly drawn) [Compound 48]
  SSTR5 Inhib 0.5 uM % (inhibition of binding of SST-14 to SSTR5): 66%
  SSTR5 Inhib 10 uM % (inhibition of binding of SST-14 to SSTR5): 92%

## CO[C@H]1[C@H](O)[C@@H](COCc2ccc(Cl)cc2)OC(OCc2ccc3ccccc3c2)[C@@H]1NC(=O)CCCN (stereo partly drawn) [Compound 143]
  SSTR5 Inhib 0.5 uM % (inhibition of binding of SST-14 to SSTR5): 35%
  SSTR5 Inhib 10 uM % (inhibition of binding of SST-14 to SSTR5): 78%

## CSC1O[C@H](COCc2ccc(Cl)cc2)[C@@H](O)[C@@H](OCc2ccc3ccccc3c2)[C@H]1NC(=O)CN (stereo partly drawn) [Compound 167]
  SSTR5 Inhib 0.5 uM % (inhibition of binding of SST-14 to SSTR5): 43%
  SSTR5 Inhib 10 uM % (inhibition of binding of SST-14 to SSTR5): 73%

## COC[C@H]1OC(OCc2ccccc2)[C@H](NC(=O)CCNC(=N)N)[C@H](OCc2ccc(Cl)cc2)[C@@H]1O (stereo partly drawn) [Compound 102]
  SSTR5 Inhib 0.5 uM % (inhibition of binding of SST-14 to SSTR5): 42%
  SSTR5 Inhib 10 uM % (inhibition of binding of SST-14 to SSTR5): 84%

## COC1C(O)C(COCc2ccc3ccccc3c2)OC(OCc2ccc(Cl)cc2)C1NC(=O)CNC(=N)N (stereo not drawn) [Compound 173]
  SSTR5 Inhib 0.5 uM % (inhibition of binding of SST-14 to SSTR5): 47%
  SSTR5 Inhib 10 uM % (inhibition of binding of SST-14 to SSTR5): 71%

## CO[C@H]1[C@H](O)[C@@H](COCc2ccc(-c3ccccc3)cc2)OC(OCc2ccc(-c3ccccc3)cc2)[C@@H]1NC(=O)CCCN (stereo partly drawn) [Compound 179]
  SSTR5 Inhib 0.5 uM % (inhibition of binding of SST-14 to SSTR5): 29%
  SSTR5 Inhib 10 uM % (inhibition of binding of SST-14 to SSTR5): 70%

## CSC1O[C@H](COCc2ccc(Cl)cc2)[C@@H](O)[C@@H](OCc2ccc3ccccc3c2)[C@H]1NC(=O)CCNC(=N)N (stereo partly drawn) [Compound 125]
  SSTR5 Inhib 0.5 uM % (inhibition of binding of SST-14 to SSTR5): 34%
  SSTR5 Inhib 10 uM % (inhibition of binding of SST-14 to SSTR5): 80%

## COC[C@H]1OC(OCc2ccc3ccccc3c2)[C@H](NC(=O)CCCNC(=N)N)[C@@H](OCc2ccc(Cl)cc2)[C@@H]1O (stereo partly drawn) [Compound 103]
  SSTR5 Inhib 0.5 uM % (inhibition of binding of SST-14 to SSTR5): 48%
  SSTR5 Inhib 10 uM % (inhibition of binding of SST-14 to SSTR5): 84%

## CO[C@H]1[C@H](O)[C@@H](COCc2ccc(Cl)cc2)OC(OCc2ccc(Cl)cc2)[C@@H]1NC(=O)CCNC(=N)N (stereo partly drawn) [Compound 152]
  SSTR5 Inhib 0.5 uM % (inhibition of binding of SST-14 to SSTR5): 47%
  SSTR5 Inhib 10 uM % (inhibition of binding of SST-14 to SSTR5): 76%

## COC[C@H]1OC(OCc2ccc3ccccc3c2)[C@H](NC(=O)CCCN)[C@H](OCc2ccc(-c3ccccc3)cc2)[C@@H]1O (stereo partly drawn) [Compound 43]
  SSTR5 Inhib 0.5 uM % (inhibition of binding of SST-14 to SSTR5): 68%
  SSTR5 Inhib 10 uM % (inhibition of binding of SST-14 to SSTR5): 94%

## COC[C@H]1OC(OCc2ccc3ccccc3c2)[C@H](NC(=O)CCCN)[C@@H](OCc2ccc(Cl)cc2)[C@@H]1O (stereo partly drawn) [Compound 47]
  SSTR5 Inhib 0.5 uM % (inhibition of binding of SST-14 to SSTR5): 68%
  SSTR5 Inhib 10 uM % (inhibition of binding of SST-14 to SSTR5): 93%

## CSC1O[C@H](COCc2ccc(Cl)cc2)[C@@H](O)[C@@H](OCc2ccc(-c3ccccc3)cc2)[C@H]1NC(=O)CNC(=N)N (stereo partly drawn) [Compound 111]
  SSTR5 Inhib 0.5 uM % (inhibition of binding of SST-14 to SSTR5): 36%
  SSTR5 Inhib 10 uM % (inhibition of binding of SST-14 to SSTR5): 83%

## COC[C@H]1OC(OCc2ccc3ccccc3c2)[C@H](NC(=O)CCCN)[C@@H](OCc2ccc(Cl)cc2)[C@@H]1O (stereo partly drawn) [Compound 61]
  SSTR5 Inhib 0.5 uM % (inhibition of binding of SST-14 to SSTR5): 61%
  SSTR5 Inhib 10 uM % (inhibition of binding of SST-14 to SSTR5): 90%

## COC[C@H]1OC(OCc2ccc3ccccc3c2)[C@H](NC(=O)CCNC(=N)N)[C@@H](OCc2ccc3ccccc3c2)[C@@H]1O (stereo partly drawn) [Compound 151]
  SSTR5 Inhib 0.5 uM % (inhibition of binding of SST-14 to SSTR5): 36%
  SSTR5 Inhib 10 uM % (inhibition of binding of SST-14 to SSTR5): 76%

## COC[C@H]1OC(OCc2ccc(Cl)cc2)[C@H](NC(=O)CCNC(=N)N)[C@H](OCc2ccc3ccccc3c2)[C@@H]1O (stereo partly drawn) [Compound 50]
  SSTR5 Inhib 0.5 uM % (inhibition of binding of SST-14 to SSTR5): 74%
  SSTR5 Inhib 10 uM % (inhibition of binding of SST-14 to SSTR5): 92%

## COC[C@H]1OC(OCc2ccc3ccccc3c2)[C@H](NC(=O)CCCNC(=N)N)[C@@H](OCc2ccc3ccccc3c2)[C@@H]1O (stereo partly drawn) [Compound 104]
  SSTR5 Inhib 0.5 uM % (inhibition of binding of SST-14 to SSTR5): 47%
  SSTR5 Inhib 10 uM % (inhibition of binding of SST-14 to SSTR5): 84%

## COC[C@H]1OC(OCc2ccc3ccccc3c2)[C@H](NC(=O)CCCNC(=N)N)[C@H](OCc2ccc3ccccc3c2)[C@@H]1O (stereo partly drawn) [Compound 60]
  SSTR5 Inhib 0.5 uM % (inhibition of binding of SST-14 to SSTR5): 57%
  SSTR5 Inhib 10 uM % (inhibition of binding of SST-14 to SSTR5): 90%

## COC[C@H]1OC(OCc2ccc3ccccc3c2)[C@H](NC(=O)CCCN)[C@@H](OCc2ccc(-c3ccccc3)cc2)[C@@H]1O (stereo partly drawn) [Compound 29]
  SSTR5 Inhib 0.5 uM % (inhibition of binding of SST-14 to SSTR5): 77%
  SSTR5 Inhib 10 uM % (inhibition of binding of SST-14 to SSTR5): 96%

## COC[C@H]1OC(OCCc2ccccc2)[C@H](NC(=O)CCNC(=N)N)[C@@H](OCc2ccc(Cl)cc2)[C@@H]1O (stereo partly drawn) [Compound 166]
  SSTR5 Inhib 0.5 uM % (inhibition of binding of SST-14 to SSTR5): 36%
  SSTR5 Inhib 10 uM % (inhibition of binding of SST-14 to SSTR5): 73%
